Measured values: the supplement of paper PMC11451515

How the values were obtained:
Conditions in all cases: 48 h
SEM cells [1] = assay: AUC of viability dose-response curve (% viability x log10 dose units); higher = less sensitive
Method in brief: (§1)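 Area under the curve was integrated by trapezoidal rule from a log-logistic fit of normalised viability, with curves exceeding full viability scaled and quality-control failures removed. The fit had four parameters over log10 doses. Viability came from CellTiter-Glo One luminescence, normalised per plate to DMSO and cell-free wells, after leukemia cells adapted to each medium (500 or 1000 cells/well, 1536-well plates) were exposed to library compounds in DMSO for 48 h at 37°C. The 11 threefold doses ran from 47 μM to 0.79 nM.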

P12-Ichikawa [2] = assay: as above
Method in brief: as §1

NOMO1 [3] = assay: as above
Method in brief: as §1

SEM cells [4] = assay: cell viability relative to DMSO control; higher = less cytotoxic
Method in brief: (§2)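 Viability was expressed as a per-plate percentage of DMSO wells, with cell-free wells as background. Leukemia cells (NOMO1 or SEM at 500 cells/well, P12-Ichikawa at 1000 cells/well) were adapted for at least four passages in each medium and seeded in 1536-well plates (5 μl). Library compounds in DMSO were pin-dosed over an 11-point threefold series from 47 μM to 0.79 nM, and CellTiter-Glo One luminescence was read after 48 h at 37°C.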

P12-Ichikawa [5] = assay: as above
Method in brief: as §2

NOMO1 [6] = assay: as above
Method in brief: as §2

CC(C)(C)[C@]1(O)C[C@@H]2OC(=O)C[C@@]23C(=O)O[C@@H]2OC(=O)[C@H](O)C213 (stereo partly drawn)
AUC of viability dose-response curve
Conditions	NOMO1 [3]	P12-Ichikawa [2]	SEM cells [1]
HPLM + 10% dialyzed FBS	452	447	471
RPMI 5 mM glucose + 10% FBS	436	458	444
RPMI 5 mM glucose + 10% dialyzed FBS	452	452	436

cell viability [%]
Conditions	HPLM + 10% dialyzed FBS	RPMI 5 mM glucose + 10% FBS	RPMI 5 mM glucose + 10% dialyzed FBS
P12-Ichikawa [5], 0.000781 µM	121	128	120
P12-Ichikawa [5], 0.00234 µM	127	121	129
P12-Ichikawa [5], 0.00702 µM	121	113	124
P12-Ichikawa [5], 0.0211 µM	126	136	130
P12-Ichikawa [5], 0.0632 µM	118	118	119
P12-Ichikawa [5], 0.19 µM	112	122	116
P12-Ichikawa [5], 0.569 µM	118	118	119
P12-Ichikawa [5], 1.71 µM	108	105	105
P12-Ichikawa [5], 5.12 µM	109	116	118
P12-Ichikawa [5], 15.4 µM	114	108	116
P12-Ichikawa [5], 46.1 µM	106	113	112
SEM cells [4], 0.000781 µM	113	110	–
SEM cells [4], 0.00234 µM	108	139	–
SEM cells [4], 0.00702 µM	109	120	–
SEM cells [4], 0.0211 µM	104	148	–
SEM cells [4], 0.0632 µM	110	114	–
SEM cells [4], 0.19 µM	99.1	108	–
SEM cells [4], 0.569 µM	104	113	–
SEM cells [4], 1.71 µM	111	90.4	–
SEM cells [4], 5.12 µM	105	118	–
SEM cells [4], 15.4 µM	113	134	–
SEM cells [4], 46.1 µM	115	125	–

CN(C)c1ccc(-c2nc3c(N4CCN(CC(=O)Nc5nccs5)CC4)c(Cl)cnc3[nH]2)cc1
AUC of viability dose-response curve
Conditions	NOMO1 [3]	P12-Ichikawa [2]	SEM cells [1]
HPLM + 10% dialyzed FBS	431	468	429
RPMI 5 mM glucose + 10% FBS	466	466	420
RPMI 5 mM glucose + 10% dialyzed FBS	460	428	421

cell viability [%]
Conditions	NOMO1 [6]	P12-Ichikawa [5]	SEM cells [4]
HPLM + 10% dialyzed FBS, 0.000781 µM	117	109	129
HPLM + 10% dialyzed FBS, 0.00234 µM	130	107	102
HPLM + 10% dialyzed FBS, 0.00702 µM	121	118	115
HPLM + 10% dialyzed FBS, 0.0211 µM	124	110	112
HPLM + 10% dialyzed FBS, 0.0632 µM	113	113	115
HPLM + 10% dialyzed FBS, 0.19 µM	127	117	112
HPLM + 10% dialyzed FBS, 0.569 µM	112	115	109
HPLM + 10% dialyzed FBS, 1.71 µM	102	109	86.9
HPLM + 10% dialyzed FBS, 5.12 µM	101	108	105
HPLM + 10% dialyzed FBS, 15.4 µM	89.9	102	80
HPLM + 10% dialyzed FBS, 46.1 µM	69.2	103	58.8
RPMI 5 mM glucose + 10% FBS, 0.000781 µM	102	113	103
RPMI 5 mM glucose + 10% FBS, 0.00234 µM	99.3	114	118
RPMI 5 mM glucose + 10% FBS, 0.00702 µM	98.6	116	130
RPMI 5 mM glucose + 10% FBS, 0.0211 µM	94.6	131	107
RPMI 5 mM glucose + 10% FBS, 0.0632 µM	101	109	106
RPMI 5 mM glucose + 10% FBS, 0.19 µM	108	125	124
RPMI 5 mM glucose + 10% FBS, 0.569 µM	93.6	111	107
RPMI 5 mM glucose + 10% FBS, 1.71 µM	109	115	87.7
RPMI 5 mM glucose + 10% FBS, 5.12 µM	103	118	92.5
RPMI 5 mM glucose + 10% FBS, 15.4 µM	89.9	95.9	70.3
RPMI 5 mM glucose + 10% FBS, 46.1 µM	77.7	103	51.2
RPMI 5 mM glucose + 10% dialyzed FBS, 0.000781 µM	108	–	105
RPMI 5 mM glucose + 10% dialyzed FBS, 0.00234 µM	107	–	121
RPMI 5 mM glucose + 10% dialyzed FBS, 0.00702 µM	103	–	120
RPMI 5 mM glucose + 10% dialyzed FBS, 0.0211 µM	108	–	116
RPMI 5 mM glucose + 10% dialyzed FBS, 0.0632 µM	113	–	107
RPMI 5 mM glucose + 10% dialyzed FBS, 0.19 µM	106	–	111
RPMI 5 mM glucose + 10% dialyzed FBS, 0.569 µM	101	–	102
RPMI 5 mM glucose + 10% dialyzed FBS, 1.71 µM	107	–	89.7
RPMI 5 mM glucose + 10% dialyzed FBS, 5.12 µM	98.3	–	97.9
RPMI 5 mM glucose + 10% dialyzed FBS, 15.4 µM	94.8	–	71.1
RPMI 5 mM glucose + 10% dialyzed FBS, 46.1 µM	70.3	–	49.6

CO[C@H]1C[C@@H]2CC[C@@H](C)[C@@](O)(O2)C(=O)C(=O)N2CCCC[C@H]2C(=O)O[C@H]([C@@H](C)C[C@@H]2CC[C@@H](O)[C@H](OC)C2)CC(=O)[C@H](C)/C=C(\C)[C@@H](O)[C@@H](OC)C(=O)[C@H](C)C[C@H](C)/C=C/C=C/C=C/1C
AUC of viability dose-response curve
Conditions	NOMO1 [3]	P12-Ichikawa [2]	SEM cells [1]
HPLM + 10% dialyzed FBS	454	465	394
RPMI 5 mM glucose + 10% FBS	442	415	382
RPMI 5 mM glucose + 10% dialyzed FBS	466	443	409

cell viability [%]
Conditions	NOMO1 [6]	P12-Ichikawa [5]	SEM cells [4]
HPLM + 10% dialyzed FBS, 0.000781 µM	106	118	95.4
HPLM + 10% dialyzed FBS, 0.00234 µM	110	127	95.3
HPLM + 10% dialyzed FBS, 0.00702 µM	112	122	88
HPLM + 10% dialyzed FBS, 0.0211 µM	91	125	83.2
HPLM + 10% dialyzed FBS, 0.0632 µM	95.3	124	86.9
HPLM + 10% dialyzed FBS, 0.19 µM	112	116	81.7
HPLM + 10% dialyzed FBS, 0.569 µM	103	121	81.9
HPLM + 10% dialyzed FBS, 1.71 µM	104	124	74.2
HPLM + 10% dialyzed FBS, 5.12 µM	81.6	113	80.1
HPLM + 10% dialyzed FBS, 15.4 µM	88.7	112	79.5
HPLM + 10% dialyzed FBS, 46.1 µM	81.5	91.8	61.3
RPMI 5 mM glucose + 10% FBS, 0.000781 µM	113	–	98.6
RPMI 5 mM glucose + 10% FBS, 0.00234 µM	116	–	84.3
RPMI 5 mM glucose + 10% FBS, 0.00702 µM	128	–	89.4
RPMI 5 mM glucose + 10% FBS, 0.0211 µM	136	–	94.9
RPMI 5 mM glucose + 10% FBS, 0.0632 µM	136	–	80.6
RPMI 5 mM glucose + 10% FBS, 0.19 µM	109	–	77.3
RPMI 5 mM glucose + 10% FBS, 0.569 µM	113	–	75.7
RPMI 5 mM glucose + 10% FBS, 1.71 µM	118	–	80.7
RPMI 5 mM glucose + 10% FBS, 5.12 µM	97.3	–	68
RPMI 5 mM glucose + 10% FBS, 15.4 µM	111	–	70.6
RPMI 5 mM glucose + 10% FBS, 46.1 µM	103	–	60.6
RPMI 5 mM glucose + 10% dialyzed FBS, 0.000781 µM	112	–	96.9
RPMI 5 mM glucose + 10% dialyzed FBS, 0.00234 µM	116	–	87.2
RPMI 5 mM glucose + 10% dialyzed FBS, 0.00702 µM	121	–	102
RPMI 5 mM glucose + 10% dialyzed FBS, 0.0211 µM	106	–	85.7
RPMI 5 mM glucose + 10% dialyzed FBS, 0.0632 µM	108	–	89.8
RPMI 5 mM glucose + 10% dialyzed FBS, 0.19 µM	117	–	81.3
RPMI 5 mM glucose + 10% dialyzed FBS, 0.569 µM	111	–	85.5
RPMI 5 mM glucose + 10% dialyzed FBS, 1.71 µM	115	–	84.4
RPMI 5 mM glucose + 10% dialyzed FBS, 5.12 µM	128	–	81.6
RPMI 5 mM glucose + 10% dialyzed FBS, 15.4 µM	105	–	81.7
RPMI 5 mM glucose + 10% dialyzed FBS, 46.1 µM	99.9	–	52.6

Nc1ncnc2nc(-c3ccc(N4CCOCC4)nc3)cc(-c3cccc(Br)c3)c12
AUC of viability dose-response curve
Conditions	NOMO1 [3]	P12-Ichikawa [2]	SEM cells [1]
HPLM + 10% dialyzed FBS	463	460	470
RPMI 5 mM glucose + 10% FBS	475	439	471
RPMI 5 mM glucose + 10% dialyzed FBS	460	467	470

cell viability [%]
Conditions	NOMO1 [6]	P12-Ichikawa [5]	SEM cells [4]
HPLM + 10% dialyzed FBS, 0.000781 µM	–	116	109
HPLM + 10% dialyzed FBS, 0.00234 µM	–	128	107
HPLM + 10% dialyzed FBS, 0.00702 µM	–	117	115
HPLM + 10% dialyzed FBS, 0.0211 µM	–	122	118
HPLM + 10% dialyzed FBS, 0.0632 µM	–	117	114
HPLM + 10% dialyzed FBS, 0.19 µM	–	117	122
HPLM + 10% dialyzed FBS, 0.569 µM	–	115	117
HPLM + 10% dialyzed FBS, 1.71 µM	–	119	115
HPLM + 10% dialyzed FBS, 5.12 µM	–	111	109
HPLM + 10% dialyzed FBS, 15.4 µM	–	108	110
HPLM + 10% dialyzed FBS, 46.1 µM	–	113	96.5
RPMI 5 mM glucose + 10% FBS, 0.000781 µM	108	–	93.2
RPMI 5 mM glucose + 10% FBS, 0.00234 µM	107	–	124
RPMI 5 mM glucose + 10% FBS, 0.00702 µM	116	–	77.9
RPMI 5 mM glucose + 10% FBS, 0.0211 µM	121	–	111
RPMI 5 mM glucose + 10% FBS, 0.0632 µM	111	–	114
RPMI 5 mM glucose + 10% FBS, 0.19 µM	118	–	110
RPMI 5 mM glucose + 10% FBS, 0.569 µM	122	–	104
RPMI 5 mM glucose + 10% FBS, 1.71 µM	115	–	105
RPMI 5 mM glucose + 10% FBS, 5.12 µM	114	–	114
RPMI 5 mM glucose + 10% FBS, 15.4 µM	106	–	106
RPMI 5 mM glucose + 10% FBS, 46.1 µM	107	–	83
RPMI 5 mM glucose + 10% dialyzed FBS, 0.000781 µM	108	114	125
RPMI 5 mM glucose + 10% dialyzed FBS, 0.00234 µM	127	121	124
RPMI 5 mM glucose + 10% dialyzed FBS, 0.00702 µM	121	112	102
RPMI 5 mM glucose + 10% dialyzed FBS, 0.0211 µM	111	121	133
RPMI 5 mM glucose + 10% dialyzed FBS, 0.0632 µM	106	118	125
RPMI 5 mM glucose + 10% dialyzed FBS, 0.19 µM	120	121	127
RPMI 5 mM glucose + 10% dialyzed FBS, 0.569 µM	110	129	132
RPMI 5 mM glucose + 10% dialyzed FBS, 1.71 µM	117	115	126
RPMI 5 mM glucose + 10% dialyzed FBS, 5.12 µM	116	115	133
RPMI 5 mM glucose + 10% dialyzed FBS, 15.4 µM	106	108	123
RPMI 5 mM glucose + 10% dialyzed FBS, 46.1 µM	120	112	93
